Legend:
[1] = Kinetics of oxidation of the dihydro derivatives in brain homogenate; assay type: in vitro ADME, rat; conditions: pH 7.4, 37°C; for half-life: rat
Procedure: In Brain Homogenate: 2.0 g of rat brain tissue were homogenized in 10 ml of phosphate buffer, pH 7.4. The homogenate was centrifuged for 15 min at 3000 rpm, decanted, heated in a water bath at 50°C for 5 min and then centrifuged again. The supernatant solution was diluted to 100 ml with phosphate buffer, pH 7.4.
Reference Sample: 0.2 ml of methyl alcohol was diluted to 10 ml with the brain homogenate solution, and the solution was used to record the base line on Cary 219 spectrophotometer and as a reference for the dihydro derivative sample solution.
Dihydro Derivative Sample Solutions: 0.2 ml of 6.25 x 10-^4 M methanolic solution of the freshly prepared dihydro derivative was diluted to 10 ml with the brain homogenate solution. The mixture was scanned at 37 ° C from 400 nm to 300 nm every 10 min for 2 hrs on […] spectrophotometer.

[2] = Kinetics of oxidation of the dihydro derivatives in whole blood; assay type: in vitro ADME, human; conditions: 37°C; for half-life: human
Procedure: In Whole Blood: In each of 5 tubes, 0.1 ml of 10 x 10-^4 M methanolic solution of the freshly prepared dihydro derivative, was added 2 ml of fresh heparinized whole human blood and the tubes were kept at 37°C in a water bath. At the end of the time period to be investigated, 8 ml of acetonitrile was added, shaken vigorously and centrifuged. The extension of the supernatant solution at 350 nm was measured. A reference sample was made by addition of 0.1 ml of methyl alcohol instead of the sample solution following the same procedure.

[3] = Chemical oxidation by hydrogen peroxide and silver nitrate; assay type: physicochemical; conditions: 30% H2O2, UV spectrum
Procedure: The stability of the 1,4-dihydropyridine derivatives (5) was determined in the presence of the oxidizing agents, alcoholic AgN03 and hydrogen peroxide. The in vitro rates of oxidation of the 1,4-dihydropyridine derivative (5c) in 80% plasma, 20% brain homogenate, 20% liver homogenate and in whole blood were determined.
To 10 ml of 30% H202 was added 0.2 g of the dihydropyridine derivative (products of Examples 5 or 8). The mixture was stirred and samples were taken to check the UV spectrum.
To 5 ml of saturated methanolic AgN03 solution was added 1 ml of 5% methanolic solution of the dihydropyridine derivative. The mixture was shaken and left for 5 min for complete precipitation of silver, centrifuged and an aliquot was taken to check the UV spectrum. Complete oxidation to the quaternary salts was observed.

[4] = target: T1, COMT (catechol-O-methyltransferase) (Rattus norvegicus, UniProt P22734); test: O-methyl metabolite formation by COMT in biological fluids; assay type: in vitro ADME; conditions: no methoxy derivatives detected in any of the biological fluids studied
T1 construct: from tissue; host or cells: rat brain homogenate (20%), rat liver homogenate (20%); also 80% plasma and whole citrated blood
T1 sequence (P22734 1-264): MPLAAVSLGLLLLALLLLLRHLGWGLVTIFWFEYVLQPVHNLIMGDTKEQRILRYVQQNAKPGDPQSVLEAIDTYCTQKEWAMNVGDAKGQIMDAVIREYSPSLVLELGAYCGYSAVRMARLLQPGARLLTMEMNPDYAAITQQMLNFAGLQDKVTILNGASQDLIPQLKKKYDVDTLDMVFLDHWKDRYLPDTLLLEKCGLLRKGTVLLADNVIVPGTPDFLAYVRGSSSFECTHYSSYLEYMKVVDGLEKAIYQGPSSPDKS
Procedure: In an attempt to ascertain whether any biotransformation of the free catechol is taking place by COMT (catechol-O-methyltransferase) either before or after oxidation, the possible O-methyl metabolites (9 and 10) were synthesized separately following Scheme 4 with 3-methoxytyramine hydrochloride as the starting material. [drawing 52] [drawing 53]
Figures 1-4 illustrate the results of such an investigation. The apparent half-lives for the disappearance of 5c in biological fluids at 37°C were calculated. […] The obtained values, 51 min (80% plasma), 17 min (20% brain homogenate), 18 min (whole citrated blood) and 6 min (20% liver homogenate), reflect an acceptable stability of the dihydro derivative 5c. The disappearance of 5c is accompanied by formation of some monoester (11) and dihydroxy dihydro form (5a) in all the media except the liver homogenate. The rate of hydrolysis of the first ester moiety is faster than the second and a reasonable amount of monoester 11 builds up with time. […] Thus, it is established that this derivative, 6a, is forming as the main product of the various interconversion routes and it is the direct precursor thus concluded to be locked in the brain in the in vivo experiment.

[5] = Lability of the catechol esters to hydrolysis; assay type: physicochemical; conditions: diacetyl derivatives
Text: Attempts to prepare 7 by using dopamine free base were largely unsuccessful. As for the catechol protecting groups, the acetyl and pivalyl moieties were selected due to their rather different steric and partitioning parameters. Acylation could be accomplished with the acyl chlorides by using conventional methods. Reduction of the quaternaries (6a-c and 9) was accomplished by using sodium dithionite in mildly basic aqueous solution, (NaHC03). It was observed that the dihydro compound obtained in the case of the quaternary 6b gave a faint green color with ferric ions, indicating partial hydrolysis of at least one of the acetyl moieties during reduction, even in the cold, weakly basic solution used as a medium. The dihydropyridine derivatives isolated (5a-c and 10) were determined to have the expected 1,4-dihydropyridine structure, based on their NMR and UV spectra.
The dipivalyldihydro derivative (5c) was thoroughly investigated for its in vitro rates of disappearance and metabolic degradation in various biological fluids. It is evident that 5c represents a rather complex case, as besides oxidation, a two-step hydrolysis will also take place. Scheme 5 illustrates the interconversion of the possible components. [drawing 54]

[6] = test system: serum prolactin; test: In vivo effect on pituitary prolactin secretion (17-β-estradiol primed male rats); conditions: I.V. 1 mg/kg
Text: Adult male rats (Charles Rivers, CD-1) weighing 200 to 225 g were provided food and water ad libitum for at least one week period to experimentation. To elevate serum prolactin levels, each rat received a single s.c. implant of a Silastic tube (1.57 mm interior diameter, 5 mm x 3.15 mm overall size) packed with crystalline 17-,8-estradiol. Two days later the rats were lightly anesthetized with ether and a small incision was made over the right jugular vein for intravenous (LV.) administration of the test drugs. Compound 6a was injected at a dose of 1 mg/kg body weight/ml saline and groups of six rats were decapitated at 15, 30, 60 and 120 min later to collect blood samples. Control rats (time 0) received an I.V. injection of the saline vehicle and were decapitated 30 min later. Compound 5c was dissolved in 10% ethanol in saline and was injected IV. Rats were decapitated at 15, 30 and 120 min later. Control (time 0) animals received the 10% ethanol vehicle and were sampled 30 min later.
Trunk blood was collected, allowed to clot for 2h and the serum was separated and stored at -20 ° C for subsequent assay for prolactin concentrations. Each serum sample was assayed in duplicate by the doubleantibody radioimmunoassay procedure described by the National Pituitary Agency Hormone Distribution Program. Serum prolactin concentrations are expressed in terms of the PRL-RP-2 reference preparation provided. The intraassay coefficient of variation for 10 replicate samples of pooled serum obtained from male rats was 13.8%.
The effects of compounds 5c and 6a on serum prolactin concentrations were evaluated by one-way analysis of variance and Student-Newman Keuls tests. A probability level of less than 0.05 was selected for significance. See FIGURE 7 and the discussion thereof hereinabove.

[7] = test system: anterior pituitary (AP); test: In vitro evaluation of the prolactin inhibitory effect on incubated anterior pituitaries; assay type: cell-based, rats; conditions: for Prolactin release rate of the incubated AP-S: 37°C, average of 9 separate AP-S
Procedure: Adult female rats (Charles Rivers Lab.) weighing 225-250 g were maintained on food and water ad libitum. Animals were sacrificed by decapitation; their pituitary glands were quickly removed from the cranium. The anterior pituitary (AP) of each animal was dissected into two equal halves and placed into incubation media. (Gibco's Minimal Essential Media supplied by Grand Island Biological Co. was used.) The incubation was conducted at 37 °C, under continuous aeration (95% 02, 5% C02); the pH was 7.2. After one hour of preincubation, the media were discarded and replaced with fresh ones containing either DA ( 2 x 10-^8 M), 6a ( 2 x 10-^8) or ascorbic acid (10-^4 M). In all cases, one-half of AP received the test drug; the other, the ascorbate control. After one hour, samples were taken from the media and the remaining media were discarded. […] One hour later, the second samples were taken After the 3 h incubation period, each half AP's were weighed. The samples were diluted 1:50 with phosphate buffered saline and then assayed in triplicate by the radioimmunoassay method described. The data are given as ng prolactin released/mg wet weight/h. Paired Student's T-test was used to evaluate the significance of the inhibitory effects of the test drugs on prolactin secretion The control AP half and the drug treated half were employed in each paired comparison. See TABLE I and the discussion thereof hereinabove.

[8] = cited from earlier work

CN1C=C(C(=O)NCCc2ccccc2)CC(C(=O)NCCc2ccccc2)=C1 [1-Methyl-3,5-di(N-β-phenethyl)carbamoyl-1,4-dihydropyridine]
Kinetics of Oxidation (rate constant) [1]: 8.4 x 10^-6 n=6 r=.997
half-life ([1]; unit inferred): 22.9 h
Kinetics of Oxidation (rate constant) [2]: 4.9 x 10^-5 n=5 r=.949
half-life ([2]; unit inferred): 3.9 h
Oxidation by Hydrogen Peroxide [3]: Complete oxidation to the corresponding quaternary salts

CCOC(=O)C1=CN(C)C=C(C(=O)NCCc2ccccc2)C1 [5-Carboethoxy-1-methyl-3-(N-β-phenethyl)carbamoyl-1,4-dihydropyridine]
Kinetics of Oxidation (rate constant) [1]: 1.74 x 10^-5 n=6 r=.993
half-life [1]: 11.1 h
Kinetics of Oxidation (rate constant) [2]: 1.13 x 10^-4 n=5 r=.972
half-life [2]: 1.7 h
Oxidation by Hydrogen Peroxide [3]: Complete oxidation to the corresponding quaternary salts

CN1C=CCC(C(=O)NCCc2ccc(O)c(O)c2)=C1 [5a, 1-Methyl-3-{N-[β-(3,4-dihydroxyphenyl)-ethyl]}carbamoyl-1,4-dihydropyridine]
substrate for COMT [4]: do not appear to be good substrates for COMT

CC(=O)Oc1ccc(CCNC(=O)C2=CN(C)C=CC2)cc1OC(C)=O [5b, 1-Methyl-3-(N-[6-(3,4-diacetoxyphenyl)-ethyl]}carbamoyl-1,4-dihydropyridine]
lability to hydrolysis [5]: labile to hydrolysis

C[n+]1cccc(C(=O)NCCc2ccc(O)c(O)c2)c1 [6a]
serum prolactin levels versus vehicle injected controls ([6]; by 60 and 120 min): not significantly different from vehicle injected controls
effect on the serum prolactin concentrations ([6]; by 15 min): no significant effect
reduction of serum prolactin concentrations ([6]; by 30 min): 67%
reduction of the prolactin rate secretion ([7]; 2x10-^7 M): no effect
Prolactin release rate of the incubated AP-S ([7]; 2x10^-7M): 277±32 ng/mg. h
effect on the rate of release of prolactin ([7]; 2x10^-8M): neither DA nor 6a had any effect
Prolactin release rate of the incubated AP-S ([7]; 2x10^-8M): 386±29 ng/mg. h
substrate for COMT [4]: do not appear to be good substrates for COMT

CC(=O)Oc1ccc(CCNC(=O)c2ccc[n+](C)c2)cc1OC(C)=O [6b, 1-Methyl-3-{N-[β-(3,4-diacetoxy-phenyl)ethyl]} carbamoyl-pyridinium iodide]
lability to hydrolysis [5]: labile to hydrolysis

NCCc1ccc(O)c(O)c1 [DA, dopamine, reference compound]
Prolactin release rate of the incubated AP-S ([7]; 2x10^-7M): 121±38 ng/mg. h
effect on the rate of release of prolactin ([7]; 2x10^-8M): neither DA nor 6a had any effect
Prolactin release rate of the incubated AP-S ([7]; 2x10^-8M): 355±67 ng/mg. h
inhibition at 0.2 µM ([7]; Rattus norvegicus, 1 h, 2x10-^7 M, read-out: reduction of the prolactin rate secretion): 57%

CCCC(CCC)C(=O)[O-].[Na+] [sodium valproate]
level in the blood needed to achieve the required activity [8]: 50 to 100 µg/mL
